The results in this text go back to ChEMBL document CHEMBL5338748, “Structure-Based Discovery of a New Selectivity-Enabling Motif for the FK506-Binding Protein 51” (J Med Chem, 2023).

Activity calls are given as the source filed them. The rule behind the calls is not given here. Some results are limits rather than exact numbers.

The target of data set [1] is Transient receptor potential cation channel subfamily V member 1 (Mus musculus) (UniProt Q704Y3). The experiment in a line: Desensitization of TRPV1 in naive C57BL/Nrj mouse dorsal root ganglion primary sensory neurons assessed as reduction in capsaicin-stimulated calcium influx at 1 uM preincubated for 2 mins followed by capsaicin stimulation and measured after 20 secs relative to control. Type of data set: tissue-based. The arrangement: scale not given: the % may be the effect or the level left. The following applies: Primary sensory neuron, time 140.0 sec.
Transient receptor potential cation channel subfamily V member 1 (Mus musculus), sequence (Q704Y3 whole entry): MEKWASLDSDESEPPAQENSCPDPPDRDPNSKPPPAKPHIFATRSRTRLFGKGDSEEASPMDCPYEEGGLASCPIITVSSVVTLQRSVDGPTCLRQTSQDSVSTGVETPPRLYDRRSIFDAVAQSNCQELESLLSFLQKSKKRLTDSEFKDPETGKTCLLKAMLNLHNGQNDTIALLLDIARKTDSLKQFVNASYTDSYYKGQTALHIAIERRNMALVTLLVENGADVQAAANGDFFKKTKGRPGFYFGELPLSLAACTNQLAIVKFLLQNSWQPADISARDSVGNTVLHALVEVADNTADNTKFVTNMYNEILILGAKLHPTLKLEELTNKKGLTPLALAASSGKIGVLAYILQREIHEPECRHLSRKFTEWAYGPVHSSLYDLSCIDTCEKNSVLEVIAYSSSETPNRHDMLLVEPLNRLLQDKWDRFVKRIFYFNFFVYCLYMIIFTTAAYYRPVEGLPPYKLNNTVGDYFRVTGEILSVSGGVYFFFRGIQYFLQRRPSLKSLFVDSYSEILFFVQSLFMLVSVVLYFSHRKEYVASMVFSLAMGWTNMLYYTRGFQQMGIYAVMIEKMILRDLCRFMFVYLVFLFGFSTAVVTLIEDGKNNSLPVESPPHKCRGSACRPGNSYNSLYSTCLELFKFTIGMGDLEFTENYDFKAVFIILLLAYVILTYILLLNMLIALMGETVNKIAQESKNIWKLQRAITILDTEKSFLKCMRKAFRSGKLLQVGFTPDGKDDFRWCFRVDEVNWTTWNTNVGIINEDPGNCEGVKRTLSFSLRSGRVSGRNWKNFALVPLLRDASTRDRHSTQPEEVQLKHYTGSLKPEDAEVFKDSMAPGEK

Data set [2] in a line: Volume of distribution in C57BL/6 mouse at 10 mg/kg, ip measured after 6 hrs. Particulars: in vivo. Type of data set: ADME, organism-based.
The nature of data set [3]: Tmax in C57BL/6 mouse at 10 mg/kg, ip measured after 6 hrs. Type of data set: ADME, organism-based. The following applies: in vivo.
The nature of data set [4]: Drug penetration in C57BL/6 mouse brain at 10 mg/kg, ip administered as single dose and measured after 6 hrs. Particulars: in vivo. The class given is ADME, organism-based.
The nature of data set [5]: Cmax in C57BL/6 mouse at 10 mg/kg, ip measured after 6 hrs. Type of data set: ADME, organism-based. On the set-up: time 6 hrs, dose 10 mg/kg, route ip. Particulars: in vivo.
Data set [6] can be described thus: Drug accumulation in C57BL/6 mouse gonadal white adipose tissue at 10 mg/kg, ip administered as single dose and measured after 6 hrs. The class given is ADME, organism-based. The following applies: in vivo.
In data set [7] the target is T1, Peptidyl-prolyl cis-trans isomerase FKBP5 (Homo sapiens, UniProt Q13451).
T1 sequence (Q13451 whole entry): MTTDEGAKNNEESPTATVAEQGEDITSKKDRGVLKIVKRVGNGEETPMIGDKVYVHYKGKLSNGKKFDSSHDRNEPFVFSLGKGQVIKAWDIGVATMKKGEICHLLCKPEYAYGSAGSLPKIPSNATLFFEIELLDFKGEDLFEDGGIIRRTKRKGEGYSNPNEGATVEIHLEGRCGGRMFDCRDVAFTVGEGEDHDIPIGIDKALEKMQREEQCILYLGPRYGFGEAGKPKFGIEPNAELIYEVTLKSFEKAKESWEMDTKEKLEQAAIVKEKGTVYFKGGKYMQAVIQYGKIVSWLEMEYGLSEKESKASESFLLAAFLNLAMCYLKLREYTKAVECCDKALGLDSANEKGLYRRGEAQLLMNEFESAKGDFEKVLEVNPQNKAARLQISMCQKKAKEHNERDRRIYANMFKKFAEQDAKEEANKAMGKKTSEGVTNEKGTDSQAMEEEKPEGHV
The experiment in a line: Binding affinity to FKBP51 (unknown origin) assessed as inhibition constant by fluorescence polarization assay. In general terms: Polarisation of emitted light reports the rotation of a fluorescent probe.

For data set [8], the target named is T1, Peptidyl-prolyl cis-trans isomerase FKBP5. The experiment in a line: Inhibition of FKBP51 (unknown origin) expressed in HEK293T cells incubated for 2 hrs by NanoBRET assay. The class given is cell-based. (In general: In BRET a luciferase serves as donor, and the signal depends on an acceptor being close.)
The nature of data set [9]: Half life in C57BL/6 mouse at 10 mg/kg, ip measured after 6 hrs. The class given is ADME, organism-based. The following applies: in vivo.
Data set [10] deals with T2, Peptidyl-prolyl cis-trans isomerase FKBP4 (Homo sapiens, UniProt Q02790).
T2 sequence (Q02790 whole entry): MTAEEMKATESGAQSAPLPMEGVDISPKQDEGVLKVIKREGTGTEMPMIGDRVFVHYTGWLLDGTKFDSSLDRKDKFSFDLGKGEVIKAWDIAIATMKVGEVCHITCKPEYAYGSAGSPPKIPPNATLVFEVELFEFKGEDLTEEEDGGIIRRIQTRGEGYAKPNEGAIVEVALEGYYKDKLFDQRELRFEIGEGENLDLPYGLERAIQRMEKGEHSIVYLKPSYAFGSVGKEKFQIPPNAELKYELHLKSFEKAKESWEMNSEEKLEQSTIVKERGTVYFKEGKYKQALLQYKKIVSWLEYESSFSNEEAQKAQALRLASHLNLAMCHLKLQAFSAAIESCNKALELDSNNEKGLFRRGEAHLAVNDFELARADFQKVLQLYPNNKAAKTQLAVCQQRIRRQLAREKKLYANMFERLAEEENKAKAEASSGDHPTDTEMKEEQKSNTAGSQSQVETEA
The experiment in a line: Binding affinity to FKBP52 (unknown origin) assessed as inhibition constant by fluorescence polarization assay.

The target in data set [11] is T2, Peptidyl-prolyl cis-trans isomerase FKBP4. The experiment in a line: Inhibition of FKBP52 (unknown origin) expressed in HEK293T cells incubated for 2 hrs by NanoBRET assay. Type of data set: cell-based.
The target of data set [12] is Transient receptor potential cation channel subfamily V member 1 (Mus musculus) (UniProt Q704Y3). The experiment in a line: Desensitization of TRPV1 in C57BL/Nrj mouse dorsal root ganglion primary sensory neurons assessed as reduction in capsaicin-stimulated calcium influx at 0.5 uM preincubated for 2 mins followed by capsaicin stimulation and measured after 20 secs. The following applies: Primary sensory neuron, time 140.0 sec. Type of data set: tissue-based.

Data set [13] has as its target T1, Peptidyl-prolyl cis-trans isomerase FKBP5. The experiment in a line: Binding affinity to FKBP51 (unknown origin).

For `COc1ccc(CCC(OC(=O)C2CCCCN2C(=O)[C@H](c2cc(OC)c(OC)c(OC)c2)c2ccc(Cl)s2)c2cccc(OCCN3CCOCC3)c2)cc1OC` (single isomer, unassigned), the Activity in [1] was 50%. This compound yielded a Vd in [2] of 0.3 L. For the same compound, the Tmax in [3] came to 0.5 h. In addition, the Drug uptake entry in data set [4] and in [6] was “Active” throughout. This compound displayed a maximum concentration (Cmax) in [5] of 0.99 µg/mL. Moreover, the inhibition constant Ki in [7] amounted to 0.019 µM; in data set [10] it was 0.774 µM. For the same compound, the figures for the IC50 in data set [8] and in data set [11] were 0.584 µM and 2.9 µM, respectively. Also, the half-life in [9] is 4.3 h.
Regarding `COc1ccc(CC[C@@H](OC(=O)[C@@H]2CCCCN2C(=O)[C@H](c2cc(OC)c(OC)c(OC)c2)c2ccc(C3CC3)s2)c2cccc(OCC(=O)O)c2)cc1OC`, the Ki was 0.041 µM in [7] and greater than 1 µM in data set [10].
Taken in the same sequence, the figures for `COc1ccc(CC[C@@H](OC(=O)[C@@H]2CCCCN2C(=O)[C@@H](c2ccsc2)c2cc(OC)c(OC)c(OC)c2)c2cccc(OCC(=O)O)c2)cc1OC` were 0.14 µM and 18 µM.
`COc1ccc(CCC(OC(=O)C2CCCCN2C(=O)[C@H](c2cc(OC)c(OC)c(OC)c2)c2ccc(C)s2)c2cccc(OCCN3CCOCC3)c2)cc1OC` (single isomer, unassigned): the Activity in data set [1] was found to be 50%. In addition, the Ki in [7] was determined as 0.017 µM; in data set [10] it was 0.775 µM. In data set [12], the outcome was Active. The compound also came in with an IC50 in [8] of 0.613 µM.
Consider `COc1ccc(CC[C@@H](OC(=O)[C@@H]2CCCCN2C(=O)[C@H](c2cc(OC)c(OC)c(OC)c2)c2ccc(Br)s2)c2cccc(OCC(=O)O)c2)cc1OC`, for which the Ki in data set [7] was 0.007 µM; in [10], 0.436 µM.
On to `COc1ccc(CC[C@@H](OC(=O)[C@@H]2CCCCN2C(=O)[C@H](c2cc(OC)c(OC)c(OC)c2)c2ccc(C#N)s2)c2cccc(OCC(=O)O)c2)cc1OC`, for which the Ki in [7] came to 0.023 µM; in [10], 2.73 µM.
Taken in the same sequence, the figures for `COc1ccc(CC[C@@H](OC(=O)[C@@H]2CCCCN2C(=O)[C@H](c2cc(OC)c(OC)c(OC)c2)c2cccs2)c2cccc(OCC(=O)O)c2)cc1OC` were 0.103 µM and 10.2 µM.
For `COc1ccc(CC[C@@H](OC(=O)[C@@H]2CCCCN2C(=O)[C@@H](c2ccccc2)c2cc(OC)c(OC)c(OC)c2)c2cccc(OCC(=O)O)c2)cc1OC` the same measures were 0.118 µM and 43.8 µM.
For `CCc1ccc([C@H](C(=O)N2CCCC[C@H]2C(=O)O[C@H](CCc2ccc(OC)c(OC)c2)c2cccc(OCC(=O)O)c2)c2cc(OC)c(OC)c(OC)c2)s1` the same measures were 0.013 µM and greater than 1 µM.
Consider `C=CC[C@@H](C(=O)N1CCCC[C@H]1C(=O)O[C@H](CCc1ccc(OC)c(OC)c1)c1cccc(OCC(=O)O)c1)c1ccc(Cl)s1`, for which the Ki in data set [7] was 0.223 µM; in data set [10], greater than 10 µM.
Regarding `COc1ccc(CC[C@@H](OC(=O)[C@@H]2CCCCN2C(=O)[C@@H](CN2CCOCC2)c2cc(OC)c(OC)c(OC)c2)c2cccc(OCC(=O)O)c2)cc1OC`, the Vd in data set [2] stood at 0.1 L. The Tmax in data set [3] was 1 h. In data set [5], the Cmax is 3.06 µg/mL. The Ki in data set [7] came out at 0.008 µM; in data set [10], 2.16 µM. The IC50 was 0.196 µM in [8] and 3.18 µM in [11]. Moreover, in data set [9], the half-life is 3.7 h.
Take `COc1ccc(CC[C@@H](OC(=O)[C@@H]2CCCCN2C(=O)[C@H](c2cc(OC)c(OC)c(OC)c2)c2ccc(Cl)s2)c2cccc(OCC(=O)O)c2)cc1OC`: the Ki in [7] is 0.004 µM; in data set [10] it was 0.95 µM.
Taken in the same sequence, the figures for `CC[C@@H](C(=O)N1CCCC[C@H]1C(=O)O[C@H](CCc1ccc(OC)c(OC)c1)c1cccc(OCC(=O)O)c1)c1ccc(Cl)s1` were 0.21 µM and greater than 10 µM.
The compound `COc1ccc(CC[C@H]2OC(=O)[C@@H]3CCCCN3C(=O)[C@@H](C3CCCCC3)NC(=O)C3(CC3)NC(=O)COc3cccc2c3)cc1OC` showed an inhibition constant (Ki) in data set [13] of 0.4 µM.
Regarding `COc1ccc(CC[C@@H](OC(=O)[C@@H]2CCCCN2C(=O)C(c2cccs2)C2CCCCC2)c2cccc(OCC(=O)O)c2)cc1OC` (stereo partly specified), the Ki in data set [7] is 0.442 µM; in data set [10] it was greater than 30 µM.
For `COc1ccc(CC[C@@H](OC(=O)[C@@H]2CCCCN2C(=O)[C@H](c2cc(OC)c(OC)c(OC)c2)C2CCCCC2)c2cccc(OCC(=O)O)c2)cc1OC` the same measures were 0.006 µM and 3.86 µM.
In the case of `COc1ccc(CC[C@H]2OC(=O)[C@@H]3CCCCN3C(=O)[C@@H](C3CCCCC3)c3cc(OC)c(OC)c(c3)OC[C@H](O)[C@H](O)COc3cccc2c3)cc1OC`, the affinity in [13] corresponds to a Ki of 0.005 µM.
Turning to `COc1ccc(CC[C@@H](OC(=O)[C@@H]2CCCCN2C(=O)C(c2ccc(Cl)s2)C2CCCCC2)c2cccc(OCC(=O)O)c2)cc1OC` (stereo partly specified), the results for the Ki in data set [7] and in [10] were 0.154 µM and greater than 10 µM, respectively.
Taken in the same sequence, the figures for `COc1ccc(CC[C@@H](OC(=O)[C@@H]2CCCCN2C(=O)[C@H](C)c2ccc(Cl)s2)c2cccc(OCC(=O)O)c2)cc1OC` were 0.3 µM and greater than 50 µM.
Turning to `COc1ccc(CC[C@@H](OC(=O)[C@@H]2CCCCN2C(=O)[C@H](c2cc(OC)c(OC)c(OC)c2)c2ccc(C)s2)c2cccc(OCC(=O)O)c2)cc1OC`, the Ki in data set [7] is 0.007 µM; in [10], 1.03 µM.

One may read the Tmax as the time from dosing to the highest level. The term Cmax denotes the peak of the concentration-time curve. One may read the Ki as the dissociation constant of the complex between target and ligand, obtained from inhibition or displacement. A word on the IC50: it is the concentration at which inhibition is half-maximal. Usually half-life stands for how long it takes for the measured level to halve.
